The record followed here is US20230072683A1, “PYRIDO-PYRIMIDIN DERIVATIVES AND PHARMACEUTICAL COMPOSITION, FOR USE IN PREVENTING OR TREATING PI3 KINASE RELATED DISEASES, COMPRISING SAME AS ACTIVE INGREDIENT” (BORYUNG PHARMACEUTICAL CO., LTD, priority 2019, published 2023).

The target of test [1] is PI3K-δ (PI3K(p1108/p857) (h)) (Homo sapiens, UniProt O00329). The test is described as follows: Evaluation of inhibitory activity against PI3K-δ (HTRF kinase assay). It is filed as biochemical. To be noted: for inhibition at 0.01 µM: compound concentration 0.01 μM, read-out: EXP_VALUE(% Inhibition) PI3K-δ 0.01 μM; for inhibition at 0.1 µM: read-out: EXP_VALUE(% Inhibition) PI3K-δ 0.1 μM. In outline:
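HTRF read-out (665/620 nm ratio ×10000) used Eu-labelled anti-GST, GST-tagged GRP1 PH domain and streptavidin-allophycocyanin after EDTA/PIP3 stop.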

Another test deals with DNA-PK(h) (Homo sapiens, UniProt P78527). Briefly: Evaluation of inhibitory activity against DNA-PK (HTRF kinase assay, GST-cMyc-p53 substrate). It is filed as biochemical. The following applies: for inhibition at 0.01 µM: compound concentration 0.01 μM, read-out: EXP_VALUE(% Inhibition) DNA-PK(h) 0.01 μM; for inhibition at 0.1 µM: read-out: EXP_VALUE(% Inhibition) DNA-PK(h) 0.1 μM. Put shortly: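 p53 Ser15 phosphorylation by human DNA-PK was measured by time-resolved FRET ratio (665/620 nm ×10000) using Eu-labelled anti-phospho-Ser15 and d2 anti-GST antibodies. Substrate GST-cMyc-p53 at 50 μM; Mg/ATP-initiated, 30 min at room temperature, EDTA stop.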

SMILES strings stand for the structures. Where two headings read alike, the source gives them in different places.

Chain of PI3K-δ (PI3K(p1108/p857) (h)) (O00329 whole entry, the tested form may be a part): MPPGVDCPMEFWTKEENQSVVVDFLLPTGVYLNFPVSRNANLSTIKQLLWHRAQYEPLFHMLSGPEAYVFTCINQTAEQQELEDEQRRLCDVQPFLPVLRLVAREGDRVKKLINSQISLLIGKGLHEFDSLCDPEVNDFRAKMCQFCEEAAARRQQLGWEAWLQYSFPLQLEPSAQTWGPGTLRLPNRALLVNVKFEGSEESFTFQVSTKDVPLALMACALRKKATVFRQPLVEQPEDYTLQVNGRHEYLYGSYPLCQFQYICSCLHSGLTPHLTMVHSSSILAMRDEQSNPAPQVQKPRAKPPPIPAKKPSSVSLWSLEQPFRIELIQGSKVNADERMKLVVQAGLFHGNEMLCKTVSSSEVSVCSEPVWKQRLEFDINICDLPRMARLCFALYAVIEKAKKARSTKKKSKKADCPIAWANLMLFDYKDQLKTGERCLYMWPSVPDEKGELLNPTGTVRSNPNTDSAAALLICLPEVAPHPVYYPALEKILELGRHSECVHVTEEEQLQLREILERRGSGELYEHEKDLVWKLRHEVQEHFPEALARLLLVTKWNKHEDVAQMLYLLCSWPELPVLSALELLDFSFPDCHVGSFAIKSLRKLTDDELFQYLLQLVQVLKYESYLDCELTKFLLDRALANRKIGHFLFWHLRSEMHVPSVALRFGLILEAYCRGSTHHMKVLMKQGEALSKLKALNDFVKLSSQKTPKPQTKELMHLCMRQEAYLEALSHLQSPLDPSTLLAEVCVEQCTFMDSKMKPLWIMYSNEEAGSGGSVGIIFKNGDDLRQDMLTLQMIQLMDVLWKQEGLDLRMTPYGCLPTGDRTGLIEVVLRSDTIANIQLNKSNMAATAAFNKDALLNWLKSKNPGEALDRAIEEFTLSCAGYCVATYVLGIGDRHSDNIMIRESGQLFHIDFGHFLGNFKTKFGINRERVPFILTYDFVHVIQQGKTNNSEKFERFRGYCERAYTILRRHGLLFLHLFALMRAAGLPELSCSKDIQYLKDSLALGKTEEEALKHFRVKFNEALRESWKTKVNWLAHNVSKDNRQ
Chain of PI3K-δ (PI3K(p1108/p857) (h)) (P27986 whole entry partner, the tested form may be a part): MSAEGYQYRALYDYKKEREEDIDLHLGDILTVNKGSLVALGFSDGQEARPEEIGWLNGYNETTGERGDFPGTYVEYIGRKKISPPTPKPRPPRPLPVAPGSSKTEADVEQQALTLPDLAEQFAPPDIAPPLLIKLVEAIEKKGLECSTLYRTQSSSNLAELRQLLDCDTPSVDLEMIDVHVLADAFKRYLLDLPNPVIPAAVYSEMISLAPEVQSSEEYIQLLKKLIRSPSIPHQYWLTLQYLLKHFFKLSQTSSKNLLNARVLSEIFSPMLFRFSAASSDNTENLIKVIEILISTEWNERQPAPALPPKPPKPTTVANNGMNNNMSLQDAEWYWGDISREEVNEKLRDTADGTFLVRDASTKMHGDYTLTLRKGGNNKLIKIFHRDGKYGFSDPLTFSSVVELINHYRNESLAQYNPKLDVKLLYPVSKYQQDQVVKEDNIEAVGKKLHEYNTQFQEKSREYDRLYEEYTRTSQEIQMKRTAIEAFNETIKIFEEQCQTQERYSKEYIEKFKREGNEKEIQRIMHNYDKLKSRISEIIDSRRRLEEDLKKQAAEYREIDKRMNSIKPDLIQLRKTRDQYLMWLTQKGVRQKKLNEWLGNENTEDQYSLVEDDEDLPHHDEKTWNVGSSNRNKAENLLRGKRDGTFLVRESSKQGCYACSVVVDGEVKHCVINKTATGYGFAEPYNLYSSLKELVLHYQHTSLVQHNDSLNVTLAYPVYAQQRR

As to `C[C@H](Nc1ncnc2[nH]ccc(=O)c12)c1c(Cl)c2cccc(CN3CCOCC3)c2c(=O)n1-c1ccccc1` [Example 245, (S)-4-((1-(4-chloro-8-(morpholinomethyl)-1-oxo-2-phenyl-1,2-dihydroisoquinolin-3-yl)ethyl)amino)pyrido[2,3-d]pyrimidin-5(8H)-one], the inhibition (commonly the relative decrease from the control value, in per cent) at 0.01 µM was determined as 52% in test [1] and 43% at DNA-PK(h).

As for `C[C@H](Nc1ncnc2[nH]ccc(=O)c12)c1c(Cl)c2cccc(-c3ccc(-c4nnc(N)s4)cc3)c2c(=O)n1-c1ccccc1` [Example 92, (S)-4-((1-(8-(4-(5-amino-1,3,4-thiadiazol-2-yl)phenyl)-4-chloro-1-oxo-2-phenyl-1,2-dihydroisoquinolin-3-yl)ethyl)amino)pyrido[2,3-d]pyrimidin-5(8H)-one], the inhibition at 0.01 µM in test [1] is 91%; on DNA-PK(h) it was 63%. Also, the inhibition at 0.1 µM in test [1] (compound concentration 0.1 μM) worked out at 97%; on DNA-PK(h) (compound concentration 0.1 μM), 92%.

Take `Cc1nc2cc(-c3cccc4c(Cl)c([C@H](C)Nc5ncnc6[nH]ccc(=O)c56)n(-c5ccccc5)c(=O)c34)ccc2[nH]1` [Example 135, (S)-4-((1-(4-chloro-8-(2-methyl-1H-benzo[d]imidazol-5-yl)-1-oxo-2-phenyl-1,2-dihydroisoquinolin-3-yl)ethyl)amino)pyrido[2,3-d]pyrimidin-5(8H)-one]: the inhibition at 0.01 µM in test [1] is 78%; at DNA-PK(h), 85%. The inhibition at 0.1 µM in test [1] (compound concentration 0.1 μM) was found to be 97%; on DNA-PK(h) (compound concentration 0.1 μM), 100%.

Consider `COc1ncc(-c2cccc3c(Cl)c([C@H](C)Nc4ncnc5[nH]ccc(=O)c45)n(-c4ccccc4)c(=O)c23)cc1NS(=O)(=O)c1ccc(F)cc1F` [Example 232, (S)—N-(5-(4-chloro-1-oxo-3-(1-((5-oxo-5,8-dihydropyrido[2,3-d]pyrimidin-4-yl)amino)ethyl)-2-phenyl-1,2-dihydroisoquinolin-8-yl)-2-methoxypyridin-3-yl)-2,4-difluorobenzenesulfonamide], for which the figures for the inhibition at 0.01 µM (in test [1]; on DNA-PK(h)) were 23% and 15%, respectively.

For `CC(=O)c1ncc(-c2cccc3c(Cl)c([C@H](C)Nc4ncnc5[nH]ccc(=O)c45)n(-c4ccccc4)c(=O)c23)cn1` [Example 403, (S)-4-((1-(8-(2-acetylpyrimidin-5-yl)-4-chloro-1-oxo-2-phenyl-1,2-dihydroisoquinolin-3-yl)ethyl)amino)pyrido[2,3-d]pyrimidin-5(8H)-one], the inhibition at 0.1 µM in test [1] (compound at 0.1 μM) was 80%; on DNA-PK(h) (compound at 0.1 μM), 46%.

As for `C[C@H](Nc1ncnc2[nH]ccc(=O)c12)c1c(Cl)c2cccc(-c3ccc(C(N)=O)cc3)c2c(=O)n1-c1ccccc1` [Example 80, (S)-4-(4-chloro-1-oxo-3-(1-((5-oxo-5,8-dihydropyrido[2,3-d]pyrimidin-4-yl)amino)ethyl)-2-phenyl-1,2-dihydroisoquinolin-8-yl)benzamide], the values for the inhibition at 0.01 µM (in test [1]; at DNA-PK(h)) were 110% and 90%, respectively. For the same compound, the inhibition at 0.1 µM in test [1] (compound concentration 0.1 μM) was 101%; at DNA-PK(h) (compound concentration 0.1 μM), 106%.

As to `Cc1ccc(-c2cccc3cc([C@H](C)Nc4ncnc5[nH]ccc(=O)c45)n(-c4ccccc4)c(=O)c23)cn1` [Example 13, (S)-4-((1-(8-(6-methylpyridin-3-yl)-1-oxo-2-phenyl-1,2-dihydroisoquinolin-3-yl)ethyl)amino)pyrido[2,3-d]pyrimidin-5(8H)-one], the results for the inhibition at 0.01 µM (in test [1]; at DNA-PK(h)) were 35% and 3%, respectively. For the same compound, the results for the inhibition at 0.1 µM (in test [1] (compound concentration 0.1 μM); at DNA-PK(h) (compound concentration 0.1 μM)) were 101% and 18%, respectively.

`COc1ccc(-c2cccc3c(Cl)c([C@H](C)Nc4ncnc5[nH]ccc(=O)c45)n(-c4ccccc4)c(=O)c23)cc1F` [Example 191, (S)-4-((1-(4-chloro-8-(3-fluoro-4-methoxyphenyl)-1-oxo-2-phenyl-1,2-dihydroisoquinolin-3-yl)ethyl)amino)pyrido[2,3-d]pyrimidin-5(8H)-one]: the inhibition at 0.01 µM is 85% in test [1] and 102% on DNA-PK(h).

Take `C[C@H](Nc1ncnc2[nH]ccc(=O)c12)c1c(Cl)c2cccc(-c3ccc(C4CC4)nc3)c2c(=O)n1-c1ccccc1` [Example 46, (S)-4-((1-(4-chloro-8-(6-cyclopropylpyridin-3-yl)-1-oxo-2-phenyl-1,2-dihydroisoquinolin-3-yl)ethyl)amino)pyrido[2,3-d]pyrimidin-5(8H)-one]: the figures for the inhibition at 0.01 µM (in test [1]; at DNA-PK(h)) were 42% and 27%, respectively.

Turning to `C[C@H](Nc1ncnc2[nH]ccc(=O)c12)c1c(Cl)c2cccc(-c3ncc(C(F)(F)F)cn3)c2c(=O)n1-c1ccccc1` [Example 52, (S)-4-((1-(4-chloro-1-oxo-2-phenyl-8-(5-(trifluoromethyl)pyrimidin-2-yl)-1,2-dihydroisoquinolin-3-yl)ethyl)amino)pyrido[2,3-d]pyrimidin-5(8H)-one], the inhibition at 0.01 µM was 13% in test [1] and -2% at DNA-PK(h).

Take `CC(Oc1cccc2c(Cl)c([C@H](C)Nc3ncnc4[nH]ccc(=O)c34)n(-c3ccccc3)c(=O)c12)c1ccncc1` (stereo partly drawn) [Example 368, 4-(((1S)-1-(4-chloro-1-oxo-2-phenyl-8-(1-(pyridin-4-yl)ethoxy)-1,2-dihydroisoquinolin-3-yl)ethyl)amino)pyrido[2,3-d]pyrimidin-5(8H)-one]: the inhibition at 0.01 µM in test [1] is 72%; at DNA-PK(h), 50%. The inhibition at 0.1 µM in test [1] (compound concentration 0.1 μM) was determined as 94%; on DNA-PK(h) (compound concentration 0.1 μM) it was 85%.

As to `COc1cc(-c2cccc3c(Cl)c([C@H](C)Nc4ncnc5[nH]ccc(=O)c45)n(-c4ccccc4)c(=O)c23)cc(OC)c1F` [Example 154, (S)-4-((1-(4-chloro-8-(4-fluoro-3,5-dimethoxyphenyl)-1-oxo-2-phenyl-1,2-dihydroisoquinolin-3-yl)ethyl)amino)pyrido[2,3-d]pyrimidin-5(8H)-one], the inhibition at 0.01 µM was found to be 89% in test [1] and 71% at DNA-PK(h).

On to `CCNc1ncc(-c2cccc3c(Cl)c([C@H](C)Nc4ncnc5[nH]ccc(=O)c45)n(-c4ccccc4)c(=O)c23)cn1` [Example 228, (S)-4-((1-(4-chloro-8-(2-(ethylamino)pyrimidin-5-yl)-1-oxo-2-phenyl-1,2-dihydroisoquinolin-3-yl)ethyl)amino)pyrido[2,3-d]pyrimidin-5(8H)-one], for which the inhibition at 0.01 µM in test [1] amounted to 88%; on DNA-PK(h), 78%.

As for `Cc1ccc(F)cc1-c1cccc2c(Cl)c([C@H](C)Nc3ncnc4[nH]ccc(=O)c34)n(-c3ccccc3)c(=O)c12` [Example 127, (S)-4-((1-(4-chloro-8-(5-fluoro-2-methylphenyl)-1-oxo-2-phenyl-1,2-dihydroisoquinolin-3-yl)ethyl)amino)pyrido[2,3-d]pyrimidin-5(8H)-one], the values for the inhibition at 0.01 µM (in test [1]; at DNA-PK(h)) were 89% and 38%, respectively. For the same compound, the inhibition at 0.1 µM in test [1] (compound concentration 0.1 μM) came to 92%; on DNA-PK(h) (compound concentration 0.1 μM) it was 81%.

Consider `C[C@H](Nc1ncnc2[nH]ccc(=O)c12)c1c(Cl)c2cccc(S(C)(=O)=O)c2c(=O)n1-c1ccccc1` [Example 390, (S)-4-((1-(4-chloro-8-(methylsulfonyl)-1-oxo-2-phenyl-1,2-dihydroisoquinolin-3-yl)ethyl)amino)pyrido[2,3-d]pyrimidin-5(8H)-one], for which the inhibition at 0.1 µM in test [1] (compound at 0.1 μM) worked out at 89%; on DNA-PK(h) (compound at 0.1 μM), 18%.

Consider `CCOC(=O)c1cccc2c(Cl)c([C@H](C)Nc3ncnc4[nH]ccc(=O)c34)n(-c3ccccc3)c(=O)c12` [Example 292, ethyl(S)-4-chloro-1-oxo-3-(1-((5-oxo-5,8-dihydropyrido[2,3-d]pyrimidin-4-yl)amino)ethyl)-2-phenyl-1,2-dihydroisoquinoline-8-carboxylate], for which the inhibition at 0.01 µM in test [1] stood at 99%; at DNA-PK(h), 79%. Also, the inhibition at 0.1 µM in test [1] (compound concentration 0.1 μM) was determined as 112%; at DNA-PK(h) (compound concentration 0.1 μM) it was 99%.

Turning to `COc1cnc(-c2cccc3c(Cl)c([C@H](C)Nc4ncnc5[nH]ccc(=O)c45)n(-c4ccccc4)c(=O)c23)nc1` [Example 30, (S)-4-((1-(4-chloro-8-(5-methoxypyrimidin-2-yl)-1-oxo-2-phenyl-1,2-dihydroisoquinolin-3-yl)ethyl)amino)pyrido[2,3-d]pyrimidin-5(8H)-one], the inhibition at 0.01 µM in test [1] came to 12%; at DNA-PK(h), 101%.

As to `C[C@H](Nc1ncnc2[nH]ccc(=O)c12)c1cc2cccc(-c3cnc(C(C)(C)O)nc3)c2c(=O)n1-c1ccccc1` [Example 386, (S)-4-((1-(8-(2-(2-hydroxypropan-2-yl)pyrimidin-5-yl)-1-oxo-2-phenyl-1,2-dihydroisoquinolin-3-yl)ethyl)amino)pyrido[2,3-d]pyrimidin-5(8H)-one], the inhibition at 0.1 µM in test [1] (compound at 0.1 μM) came to 85%; at DNA-PK(h) (compound at 0.1 μM), 16%.

As to `C[C@H](Nc1ncnc2[nH]ccc(=O)c12)c1c(Cl)c2cccc(-c3ccc(C4CC4)cc3)c2c(=O)n1-c1ccccc1` [Example 141, (S)-4-((1-(4-chloro-8-(4-cyclopropylphenyl)-1-oxo-2-phenyl-1,2-dihydroisoquinolin-3-yl)ethyl)amino)pyrido[2,3-d]pyrimidin-5(8H)-one], the inhibition at 0.01 µM in test [1] is 39%; on DNA-PK(h), 31%. For the same compound, the values for the inhibition at 0.1 µM (in test [1] (compound concentration 0.1 μM); on DNA-PK(h) (compound concentration 0.1 μM)) were 79% and 74%, respectively.
